Our source for the IC50 values is patent US12606570B2, “Deuterated compounds and imaging agents for imaging huntingtin protein” (CHDI Foundation, Inc., priority 2021, dated 2026).

Molecules are shown by their SMILES.

The experiment addresses T1, Exon1-Q46 protein aggregates (MBP-HTT(1-89)Q46-His(6×)) (Homo sapiens, UniProt P42858, INS38QQQQQQQQQQQQQQQQQQQQQQQQQ).
T1 construct: MBP-HTT(1-89)Q46-His(6×); MBP (N, cleaved yes); His(6×) (C); made in house
The experiment is described as follows: Exon1-Q46 radioligand binding assay (RBA). The conditions noted are these: displacement of 0.3 nM [3H3-methyl]-5-((5-methoxypyridin-2-yl)methoxy)-2-(pyrazin-2-yl)benzo[d]oxazole; 1 μM Exon1-Q46 aggregates; read-out: Potency Range. The method, then: Exon1-Q46 Radioligand Binding Assay
For radioligand binding assays (RBA), MBP-HTT(1-89)Q46-His(6×) (“Exon1-Q46”) protein was generated based on a previous publication (Scherzinger et al. Cell, Vol. 90, 549-558, Aug. 8, 1997). For experiments, 30 μM MBP-Exon1-Q46 was incubated with 150 μg/mL thrombin in assay buffer (150 mM NaCl, 50 mM Tris pH 8.0) and 2 mM CaCl2 for 16 hours at 37° C. Aggregated Exon1-Q46 was pelleted by centrifugation for 5 minutes at 13,000 rpm in a bench top centrifuge and re-dissolved in the same volume of assay buffer. Test compounds were prepared by titration in DMSO at 11 concentrations from 63 μM to 2 nM. For the RBA, Exon1-Q46 protein aggregates and test compounds were pre-incubated in assay buffer for 20 minutes at room temperature, in 100 μL/well in a 96-well plate (pp, round bottom). Then, ligand was added in 50 µL/well and incubated for 60 minutes at 37° C. Final assay concentrations were […] test compound, 1 μM Exon1-Q46 protein (equivalent monomer concentration), and 0.3 nM ligand [^3H3-methyl]-5-((5-methoxypyridin-2-yl)methoxy)-2-(pyrazin-2-yl)benzo[d]oxazole. Samples were transferred onto GF/B filter plates and washed 2× with 200 μL PBS using a Filtermate Harvester. After drying filter plates for 1 hour at 55° C., the back of the plates were sealed with foil and 30 μL/well scintillation fluid (Packard MicroScint 40) added, incubated for 15 minutes in the dark, and counted in a MicroBeta reader. For analysis, replicate data from independent assay plates were normalized towards 0% and 100% inhibition using control wells of vehicle (0% inhibition) and […] unlabelled [^3H3-methyl]-5-((5-methoxypyridin-2-yl)methoxy)-2-(pyrazin-2-yl)benzo[d]oxazole (100% inhibition). IC50 values were determined with a sigmoidal inhibition model with four variables (top, bottom, slope, IC50) in a global fit using the normalized replicate data.
The results for various example compounds were as provided in the table below (+++<100 nM; ++100-500 nM; +>500 nM; ND: not determined): […]

T1 sequence (P42858 with tags, fused parts or gaps with the stated changes limits assumed): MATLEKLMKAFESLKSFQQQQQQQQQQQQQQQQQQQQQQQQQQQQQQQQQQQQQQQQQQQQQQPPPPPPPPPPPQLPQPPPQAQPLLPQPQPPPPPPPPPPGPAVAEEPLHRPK

`C=CCOc1ccc(COc2cnc3oc(-c4cc(C)ncn4)nc3c2)nc1` [Compound 5-2, 6-((5-(Allyloxy)pyridin-2-yl)methoxy)-2-(6-methylpyrimidin-4-yl) oxazolo[5,4-b]pyridine]: the IC50 is less than 0.1 µM.
With `COc1ccc(COc2cnc3oc(-c4cc(OCCF)ncn4)nc3c2)nc1` [Compound 3-1, 4-(2-Fluoroethoxy)-6-{6-[(5-methoxypyridin-2-yl)methoxy]-[1,3]oxazolo[5,4-b]pyridin-2-yl}pyrimidine] the figure was less than 0.1 µM; with `COc1ccc(COc2cnc3oc(-c4ccnc(C)n4)nc3c2)nc1` [Compound 2-1], less than 0.1 µM.
With `Cc1cc(-c2nc3cc(OCc4ccc(OCCF)cn4)cnc3o2)ncn1` [Compound 5-1, 6-((5-(2-Fluoroethoxy)pyridin-2-yl)methoxy)-2-(6-methylpyrimidin-4-yl) oxazolo[5,4-b]pyridine] the figure was less than 0.1 µM; with `Cc1cc(-c2nc3cc(OCc4ccc(OCF)cn4)cnc3o2)ncn1` [Compound 5-3, 6-((5-(Fluoromethoxy)pyridin-2-yl)methoxy)-2-(6-methylpyrimidin-4-yl) oxazolo[5,4-b]pyridine], less than 0.1 µM.
Consider `COc1ccc(COc2cnc3oc(-c4cc(C)ncn4)nc3c2)nc1` [Compound 4-1, 4-{6-[(5-Methoxypyridin-2-yl)methoxy]-[1,3]oxazolo[5,4-b]pyridin-2-yl}-6-methylpyrimidine], for which the IC50 was less than 0.1 µM.
With `[2H]C([2H])(F)C([2H])([2H])Oc1ccc(COc2cnc3oc(-c4cc(C)ncn4)nc3c2)nc1` [Compound 1-1, 6-((5-(2-Fluoroethoxy-1,1,2,2-d4)pyridin-2-yl)methoxy)-2-(6-methyl-pyrimidin-4-yl)oxazolo[5,4-b]pyridine] the figure was less than 0.1 µM.
With `Cc1ccc(S(=O)(=O)OCCOc2ccc(COc3cnc4oc(-c5cc(C)ncn5)nc4c3)nc2)cc1` [Compound 1-2, 2-((6-(((2-(6-Methylpyrimidin-4-yl)oxazolo[5,4-b]pyridin-6-yl)oxy)-methyl)pyridin-3-yl)oxy)ethyl 4-methylbenzenesulfonate] the figure was less than 0.1 µM; with `COc1cnc(COc2cnc3oc(-c4cc(C)ncn4)nc3c2)c(F)c1` [Compound 1-3, 6-((3-Fluoro-5-methoxypyridin-2-yl)methoxy)-2-(6-methylpyrimidin-4-yl)oxazolo[5,4-b]pyridine], less than 0.1 µM.
